# Laboratory results: US20140296143A1, “Angiotensin-(1-7) As A Chemoprevention Agent” (Wake Forest Innovations, priority 2008, published 2014)
# Square brackets hold non-standard residues; d marks the D form. Ends that are not written are not given here.
# Experiments:
# [1] = system: SK-LU-1 lung cancer cells; type: cell-based, human; settings: for effect of antagonist on inhibition of serum-stimulated growth by Ang-(1-7): SK-LU-1, antagonist pretreatment (1 μM); for effect on serum-stimulated ^3H-thymidine incorporation: SK-LU-1, peptide at 1 or 100 nM
# Experimental: Cells were grown to subconfluence in either 24-well cluster plates or 100 mm dishes and made quiescent by treatment for 48 h with serum-depleted growth media, prior to the experiments outlined below to measure cell growth (^3H-thymidine incorporation), cell signaling or apoptosis.
# Subsequently, the cell monolayer was washed with cold phosphate-buffered saline (PBS; 50 mM NaPO4, 120 mM NaCl, pH=7.2). The adherent cells were precipitated with cold 10% TCA (4° C. for 30 min) and dissolved in 0.2% SDS in 0.1 N NaOH.
# During an additional 4 h, cell monolayers were pulsed with ^3H-thymidine (0.25 μCi/well) and harvested.
# [2] = system: VSMCs; settings: pretreatment; U.S. Pat. No. 7,375,073; cited from earlier work
# [3] = system: AT1 angiotensin receptor; settings: literature; cited from earlier work
# [4] = target: T1, AT2 angiotensin receptor (Homo sapiens, UniProt P50052); settings: literature; cited from earlier work
# T1 sequence (P50052 1-363): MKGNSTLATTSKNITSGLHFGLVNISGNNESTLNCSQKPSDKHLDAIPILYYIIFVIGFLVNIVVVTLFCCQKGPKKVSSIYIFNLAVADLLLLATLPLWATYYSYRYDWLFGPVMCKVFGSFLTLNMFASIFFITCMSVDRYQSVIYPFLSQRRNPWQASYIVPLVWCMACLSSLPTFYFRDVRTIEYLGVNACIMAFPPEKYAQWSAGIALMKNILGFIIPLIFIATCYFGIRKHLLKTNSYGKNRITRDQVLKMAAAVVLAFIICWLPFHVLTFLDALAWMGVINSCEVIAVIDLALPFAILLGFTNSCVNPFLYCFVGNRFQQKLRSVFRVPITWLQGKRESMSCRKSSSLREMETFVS
# [5] = system: EA.hy.926 cells; experiment: Tube formation of endothelial cells in Matrigel; type: cell-based, human; settings: selective Ang-(1-7) receptor antagonist
# Experimental: These cells are a transformed human endothelial cell line derived from umbilical vein endothelial cells. They retain their endothelial phenotype and were previously used to study angiogenesis.
# After a 16 h incubation period to allow tube formation, cultures were photographed and branch points were counted, to quantify tube formation.
# AT1 angiotensin receptor, sequence (P30556 whole entry): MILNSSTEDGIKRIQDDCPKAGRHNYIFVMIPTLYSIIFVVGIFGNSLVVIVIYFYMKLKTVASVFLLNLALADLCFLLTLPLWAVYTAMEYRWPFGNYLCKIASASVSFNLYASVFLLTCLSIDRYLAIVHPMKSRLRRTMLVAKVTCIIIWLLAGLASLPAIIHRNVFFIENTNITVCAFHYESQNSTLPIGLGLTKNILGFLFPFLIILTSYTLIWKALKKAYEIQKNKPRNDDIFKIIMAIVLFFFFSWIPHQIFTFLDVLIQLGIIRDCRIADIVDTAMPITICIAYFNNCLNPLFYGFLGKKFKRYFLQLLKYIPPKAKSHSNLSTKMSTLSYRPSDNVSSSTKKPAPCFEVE
Compound,effect of antagonist on inhibition of serum-stimulated growth by Ang-(1-7) [1],effect on serum-stimulated ^3H-thymidine incorporation [1],also measured
CCCCc1nc(Cl)c(CO)n1Cc1ccc(-c2ccccc2-c2nn[nH]n2)cc1 [Losartan],"neither AT1 nor AT2 angiotensin receptor antagonists Losartan and PD123177, respectively, were effective",–,–
Cc1cc(Cn2cnc3c2CC(C(=O)O)N(C(=O)C(c2ccccc2)c2ccccc2)C3)ccc1N (stereo not drawn) [PD123177],"neither AT1 nor AT2 angiotensin receptor antagonists Losartan and PD123177, respectively, were effective",–,–
"CCN(CC)CC.Nc1ncnc2c1ncn2[C@@H]1O[C@@H]2COP(O)(=S)O[C@H]2[C@H]1O (stereo partly drawn) [Rp-cAMPS, Rp-adenosine-3′,5′-cyclic monphospho-phorothioate triethylamine salt]",–,–,effect on the reduction in serum-stimulated ^3H-thymidine incorporation by Ang-(1-7) or carbacyclin [2]: completely blocked
Arg-Val-Tyr-Ile-His-Pro-Phe (RVYIHPF; listed as Homo sapiens) [Ang-(2-8)],–,ineffective,–
Asp-Arg-Val-Tyr-Ile-His-Pro-Phe [Ang II],–,ineffective,–
DRVYIHPFHL [Ang I],–,ineffective,–
Val-Tyr-Ile-His-Pro (VYIHP; listed as Homo sapiens) [Ang-(3-7)],–,ineffective,–
Val-Tyr-Ile-His-Pro-Phe (VYIHPF; listed as Homo sapiens) [Ang-(3-8)],–,ineffective,–
"[D-Ala^7]-Ang-(1-7): a modified form of Ang-(1-7), selective Ang-(1-7) antagonist (DRVYIH[dA]) [reference compound]",blocked,–,competition at the AT1 receptor [3]: poor competitor; competition at the AT2 receptor [4]: poor competitor
[D-Pro^7]-Ang-(1-7): a selective Ang-(1-7) receptor antagonist [reference compound],–,–,effect on Ang-(1-7)-mediated reduction in tube formation [5]: prevented
